Experimental data taken from patent publication US12708622B2, “Methods of treating cancer and inhibiting TYK2 and MEK” (Washington University, priority 2021, dated 2026).

Columns and labels:
[1] = system: 2-009 cells; test: IncuCyte live cell imaging assay (cell confluence); format: cell-based; conditions: over 3 days
Description: (§1) Cell confluence and apoptosis were analyzed by IncuCyte live cell imaging assays. Drug combination synergy was calculated using Synergy Finder software.

[2] = system: 2-009 cells; test: IncuCyte assay with YOYO-1 green fluorescence (apoptosis); format: cell-based; conditions: over 3 days
Description: as §1

[3] = system: JW23.3 cells; test: IncuCyte cell death assay with YOYO-1 green fluorescent dye (apoptosis); conditions: 72 hours
Description: (§2) To gain further insight into the role of TYK2 in MPNST, the effect of pharmacologic inhibition of TYK2 was examined using IncuCyte Live Cell Imaging experiments for proliferation and cell death assay with YOYO-1 green fluorescent dye.
(§3) MPNST cell lines were plated at 2500 cells/well in 96 well plates in growth media and incubated overnight. […] Cells were imaged every 1-2 hours by IncuCyte Zoom Live-Cell Analysis System (Essen Bioscience, Sartorius, Ann Arbor, MI). Cell proliferation was determined as percent confluence from phase images and was analyzed by IncuCyte image analysis software (Sartorius). For cell death assays, 50 nmol/L YOYO-1 green fluorescent dye (Thermo Fisher) was added to treatment medium, and apoptosis was calculated as green objects normalized to the confluency factor and the initial timepoint. IC50 values were calculated in GraphPad Prism version 9 (GraphPad Software, San Diego, CA).

[4] = system: JW23.3 cells; test: IncuCyte live cell proliferation assay (percent cell confluence); format: cell-based, murine
Description: as §2, §3

[5] = system: JH-2-002 cells; test: as above
Description: as §2, §3

[6] = system: WU-386 cells; test: as above; format: cell-based, human; conditions: 3 days
Description: as §2
(§4) MPNST cell lines were plated at 2500 cells/well in 96 well plates in growth media and incubated overnight. […] Cells were imaged every 1-2 hours by IncuCyte Zoom Live-Cell Analysis System (Essen Bioscience, Sartorius, Ann Arbor, MI). Cell proliferation was determined as percent confluence from phase images and was analyzed by IncuCyte image analysis software (Sartorius). […] IC50 values were calculated in GraphPad Prism version 9 (GraphPad Software, San Diego, CA).

[7] = system: JW23.3 MPNST xenograft tumors; test: MPNST tumor growth in immunocompetent C57BL6 mice; conditions: JW23.3 in immunocompetent mice; daily oral gavage; 1.5 mg/kg deucravacitinib, 30 mg/kg mirdametinib (FIG. 10 legend)
[8] = system: WU-356 cells; test: IncuCyte live cell proliferation assay (percent cell confluence); format: cell-based, human; conditions: 3 days
Description: as §2, §4

[9] = system: WU-386 MPNST xenograft; test: MPNST xenograft tumor growth in NRG mice; conditions: WU-386 in NRG mice; daily oral gavage; single agents
[10] = system: JAK1-3; conditions: at clinically relevant doses; cited from earlier work
[11] = system: JW23.3, JH-2-002, WU-356 and WU-386 cells; test: IncuCyte cell confluence IC50 across the MPNST cell line panel; format: cell-based, murine and human; conditions: 72 h, 3 days, read-out: IC50 for inhibition of cell confluence, range over cell lines
Description: as §4

[12] = Mouse body weight and health in the MPNST tumor models; set-up: species or system mice; conditions: in vivo
Description: . […] Mouse body weight, an indicator of health, was measured 2-3 times per week.

| Compound | cell confluence [1] | apoptosis [2] | apoptosis [3] | percent cell confluence ([4]; JW23.3 cells, 72 hours) | percent cell confluence / proliferation ([5]; JH-2-002 cells, 72 hours) | IC50 ([4]; Mus musculus, 72 h, read-out: IC50 for inhibition of cell confluence) [µM] | proliferation (cell confluence) ([6]; WU-386 cells) | tumor volume relative to vehicle control [7] | proliferation (cell confluence) ([8]; WU-356 cells) | tumor size [9] | block of JAK1-3 [10] | IC50 ([5]; Homo sapiens, 72 h, read-out: IC50 for inhibition of cell confluence) [µM] | IC50 ([6]; Homo sapiens, 72 h, WU-386 MPNST cell line, IncuCyte, read-out: IC50 for inhibition of cell confluence) [µM] | IC50 [11] [µM] | IC50 ([8]; Homo sapiens, 72 h, WU-356 MPNST cell line, IncuCyte, read-out: IC50 for inhibition of cell confluence) [µM] | mouse body weight / adverse health effects [12] |
| --- | --- | --- | --- | --- | --- | --- | --- | --- | --- | --- | --- | --- | --- | --- | --- | --- |
| N#Cc1cc(F)c(C(=O)Nc2ccnc(NC(=O)C3C[C@H]3F)c2)c(Cl)c1 (stereo partly drawn) [TC-JL-37] | decreased cell confluence | increased apoptosis | increased apoptosis | decreased cell confluence | – | – | – | – | – | – | – | – | – | – | – | – |
| [2H]C([2H])([2H])NC(=O)c1nnc(NC(=O)C2CC2)cc1Nc1cccc(-c2ncn(C)n2)c1OC [deucravacitinib] | – | – | – | – | inhibited proliferation | 6.76 | inhibited proliferation | nearly half the volume of vehicle control | inhibited proliferation | non-significant trend toward decreased tumor size | does not block JAK1-3 at clinically relevant doses | – | – | – | – | – |
| O=C(NOC[C@H](O)CO)c1ccc(F)c(F)c1Nc1ccc(I)cc1F [mirdametinib] | – | – | – | – | – | – | – | nearly half the volume of vehicle control | – | non-significant trend toward decreased tumor size | – | 0.22 | 1.06 | 0.22 to 1.33 | 1.33 | did not significantly decrease mouse body weight |
